Experiment: Surface resistance measurement with high resistance meter
Assay type: physicochemical
Settings: 0.7 g (in terms of anhydride) applied
Protocol: Surface resistance measurements were performed on compound 1 that had not undergone emulsification adjustment and on glycerin and the emulsification composition that had already undergone emulsification adjustment. In the comparison of compound 1 that had not undergone emulsification adjustment and glycerin, 0.7 g (content in terms of anhydride) of each of the compound 1 and glycerin was applied to an artificial leather made of polyurethane, followed by using a high resistance meter (Stack TR-2 by Tokyo Electronics Co., Ltd.) to measure a surface resistance value. Further, in the comparison by the emulsified composition, 0.05 g of the emulsification compositions shown in Table 11 were each applied to an artificial leather made of polyurethane to measure a surface resistance value using a high resistance meter.
Further, 0.7 g (content in terms of anhydride) of sodium lactate was applied to an artificial leather made of polyurethane before drying the same to volatilize water. As the result, the coating surface was turned into a solid state whose surface resistance value, measured in a similar manner as above, turned out to be 2×10^8Ω; confirmed were a non-volatility of the compound 1 (lower than 1×10^8Ω) and an effect of liquidity at 25° C. (capability of evenly coating a coating object).

| SMILES | surface resistance value (not emulsified, liquid state at measurement) | surface resistance value (dried to volatilize water, solid state) |
| --- | --- | --- |
| OCC(O)CO [glycerin] | 5×10^8 Ω | – |
| CC(O)C(=O)[O-].[Na+] (centres unmarked) [sodium lactate] | – | 2×10^8 Ω |

Source: patent US12441959B2, “Composition containing organic ammonium salt” (MIYOSHI OIL & FAT CO., LTD., priority 2019, dated 2025)
